Key:
[1] = Antioxidant activity assessed as hydroxyl radical scavenging activity at 100 ug after 5 min by UV-Visible spectrophotometry; assay type: functional
Staphylococcus aureus = assay: Antimicrobial activity against Staphylococcus aureus MTCC 96 at 100 ug after 24 hr by agar disk diffusion method; assay type: functional; settings: MTCC 96, 24 h, read-out: DIZ
[2] = Cytotoxicity against Homo sapiens (human) HL60-P58 at 100 ug after 72 hr by MTT assay; assay type: functional
Proteus vulgaris = assay: Antimicrobial activity against Proteus vulgaris MTCC 1751 at 100 ug after 24 hr by agar disk diffusion method; assay type: functional; settings: MTCC 1751, 24 h, read-out: DIZ
Escherichia coli = assay: Antimicrobial activity against Escherichia coli DH5[alpha] at 100 ug after 24 hr by agar disk diffusion method; assay type: functional; settings: read-out: DIZ
Candida albicans = assay: Antimicrobial activity against Candida albicans MTCC 3017 at 100 ug after 48 hr by agar disk diffusion method; assay type: functional; settings: MTCC 3017, 48 h, read-out: DIZ
[3] = Antioxidant activity assessed as ferric reducing activity at 100 ug after 20 min by UV-Visible spectrophotometry; set-up: scale not given: the % may be the effect or the level left
[4] = tested on: Radical scavenging activity; assay: Antioxidant activity assessed as DPPH radical scavenging activity at 100 ug after 20 min by UV-Visible spectrophotometry; assay type: functional
[5] = Cytotoxicity against Homo sapiens (human) HeLa-B75 at 100 ug after 72 hr by MTT assay; assay type: functional
[6] = Cytotoxicity against Homo sapiens (human) PN-5C-12 at 100 ug after 72 hr by MTT assay; settings: in vitro
[7] = Cytotoxicity against Homo sapiens (human) Hep-3BPN7 at 100 ug after 72 hr by MTT assay; assay type: functional

Structure (SMILES)	Activity [1] [%]	zone of inhibition at 100 µg/disc (Staphylococcus aureus) [mm]	Activity [2] [%]	zone of inhibition at 100 µg/disc (Proteus vulgaris) [mm]	zone of inhibition at 100 µg/disc (Escherichia coli) [mm]	zone of inhibition at 100 µg/disc (Candida albicans) [mm]	Activity [3] [%]	Activity [4] [%]	Activity [5] [%]	Activity [6] [%]	Activity [7] [%]
COc1cc(OC)c(C2=CCN(C)CC2)c(OC)c1/C=C/C(=O)c1cccc(N)c1	55.6	3.5	66.72	7	3.5	6.3	64.8	94.5	82.64	44.53	76.33
CN(Cc1cnc2nc(N)nc(N)c2n1)c1ccc(C(=O)N[C@@H](CCC(=O)O)C(=O)O)cc1 [METHOTREXATE]			54.08						78.66	53.85	64.6
COc1cc(OC)c(C2=CCN(C)CC2)c(OC)c1/C=C/C(=O)c1ccccc1	41.4	5	63.52	2.5	5.5	3.5	58.4	27.9	84.15	61.79	78.06
COc1cc(OC)c(C2=CCN(C)CC2)c(OC)c1/C=C/C(=O)c1ccc([N+](=O)[O-])cc1	51.5	5	65.88	4	2	2	46.3	25	83.67	70.09	80.13
COc1ccccc1C(=O)/C=C/c1c(OC)cc(OC)c(C2=CCN(C)CC2)c1OC	59.8	2.5	68.4	3	3.5		60.8	60	81.13	46.77	71.33
COc1cc(OC)c(C2=CCN(C)CC2)c(OC)c1/C=C/C(=O)c1ccc(Br)cc1	44.4	0.5	62.68		2	0.5	50.3	23.3	84.84	66.4	78.93
COc1cc(OC)c(C2=CCN(C)CC2)c(OC)c1/C=C/C(=O)c1ccc(F)c(F)c1	52.2	2.5	70.5	4	2	1.1	43.9	58.8	82.85	65.48	76.93
COc1ccc(OC)c(C(=O)/C=C/c2c(OC)cc(OC)c(C3=CCN(C)CC3)c2OC)c1	54.9	5	66.3	5	2.5		66.5	57.7	82.09	41.1	73.4
COc1ccc(C(=O)/C=C/c2c(OC)cc(OC)c(C3=CCN(C)CC3)c2OC)c(OC)c1	59	2.5	78.48	3.5	3.15		53.1	60.6	83.4	47.82	77
COc1cc(OC)c(C2=CCN(C)CC2)c(OC)c1/C=C/C(=O)c1ccc(N)cc1	54.1	1.5	61.17	5	6.5	2.9	48.3	89.6	79.28	49.67	75.06
COc1cc(O)c(C(=O)/C=C/c2c(OC)cc(OC)c(C3=CCN(C)CC3)c2OC)c(OC)c1	51.1	1.5	64.2	9.5	2		69.3	57.3	79.69	44.13	71.4
COc1cc(OC)c(C2=CCN(C)CC2)c(OC)c1/C=C/C(=O)c1ccc(Cl)cc1Cl	48.1	1.1	58.99	5.5	2.5	1.1	63.6	56.7	79.42	50.98	71.26
COc1cc(OC)c(C2=CCN(C)CC2)c(OC)c1/C=C/C(=O)c1cc(Cl)ccc1Cl	48.5	1.5	65.63	6.5	1.5	1.5	62.4	55.4	79.97	60.47	70.8
COc1cc(OC)c(C2=CCN(C)CC2)c(OC)c1/C=C/C(=O)c1ccc[nH]1	63.1	1.1	66.55	3	6.25	1.5	61.2	68.7	77.77	57.57	80.13
COc1ccc(C(=O)/C=C/c2c(OC)cc(OC)c(C3=CCN(C)CC3)c2OC)cc1OC	35	0.5	62.77	5.5	2	1.5	50.7	22.3	84.84	65.21	79.46
COc1ccc(C(=O)/C=C/c2c(OC)cc(OC)c(C3=CCN(C)CC3)c2OC)cc1	57.9	2.5	56.97	7	3.5		67.7	55.6	80.86	46.11	72.33
COc1cc(OC)c(C2=CCN(C)CC2)c(OC)c1/C=C/C(=O)c1ccc(Cl)cc1	16.9	2.5	65.04	3	3		41.9	20.4	83.74	67.98	77.4
COc1cc(OC)c(C(=O)/C=C/c2c(OC)cc(OC)c(C3=CCN(C)CC3)c2OC)c(OC)c1	46.6	3.5	65.04	3.5	3.5		58.8	56.1	78.73	59.81	70.53
